Here are results for two compounds from PMC8018465, “Antimicrobial activities of a small molecule compound II-6s against oral streptococci” (Journal of Oral Microbiology, 2021).

≈ marks a conversion by molar mass, not a printed value. Where two headings read alike, the source gives them in different places.

The subject of one test is S. gordonii. Kind of test: Bacterial susceptibility assay (microdilution, planktonic). It counts as cell-based, Streptococcus gordonii DL1. To be noted: Streptococcus gordonii. Here is the method:
(§1) Streptococcus mutans UA159, Streptococcus gordonii DL1 and Streptococcus sanguinis ATCC10556 were obtained from the State Key Laboratory of Oral Diseases (Sichuan University, Chengdu, China). All strains were routinely cultured in brain heart infusion broth (BHI; Difco, Sparks, MD) under anaerobic conditions (5% CO2) at 37°C. For biofilm formation, bacteria were cultured in BHI broth supplied with 1% sucrose (designated BHIS).
(§2) The minimum inhibitory concentration (MIC) and minimum bactericidal concentration (MBC) of II-6s against S. mutans, S. gordonii, and S. sanguinis were measured by a microdilution method in BHI as described previously. The bacterial inoculum for the experiment was adjusted to 1 × 10^7 colony-forming units (CFU)/ml for S. mutans, S. gordonii, and S. sanguinis based on the optical density at 600 nm (OD600) versus a CFU/ml graph of each bacterium. Bacterial suspension was added to 96-well microtiter plates which were supplemented with serially diluted concentrations of II-6s ranging from 0.98 to 500 μg/ml. Each plate also included CHX ranging from 0.98 to 500 μg/ml as a positive control, test bacteria and BHI broth as a negative control, BHI broth containing equivalent DMSO (0.5% to 0.001%, ν/ν) as a solvent control and a blank control. […] The lowest concentration of the test solutions that allowed no visible growth on a BHI agar plate was taken as MBC. The experiment was performed in triplicates and repeated at least three times.

In test [1] the test system is S. mutans. Nature of the test: Bacterial drug resistance assay (MIC after repeated passages). To be noted: for change of MIC / induction of drug resistance after repeated exposure: 15 passages. In kind it is cell-based, Streptococcus mutans UA159. Here is the method: To examine whether S. mutans could develop drug resistance against II-6s, MIC measurements after repeated successive passages were performed to analyze the antimicrobial resistance, following a previous method. The MIC values of II-6s against S. mutans were tested as described above. After the initial MIC was determined, 20 µl of bacterial suspension in a well showing 1/2 MIC was mixed with 1,980 µl of BHI medium to eliminate the influence of residual drug. A volume of 50 µl of the resultant bacterial suspension was then inoculated onto a BHI agar plate followed by incubation at 37°C for 48 h. The colonies grown on the agar plate were again suspended in BHI broth. The overnight bacterial suspensions were diluted to a concentration of 1 × 10^7 CFU/ml for the next MIC test. The same procedure was repeatedly performed for 15 passages. An increase of four-fold or higher in MIC over the initial MIC was considered to be the standard for inducing resistance to an antibacterial agent. The assay was done in triplicates and repeated three times.

Test [2] has as its system S. mutans. Kind of test: Bacterial susceptibility assay (microdilution, planktonic). In kind it is cell-based, Streptococcus mutans UA159. The following applies: Streptococcus mutans. As to the method: as §1, §2
In general terms: Dilution methods test growth across graded concentrations, often in twofold steps.

In a further test the test system is S. sanguinis. The description is as above. In kind it is cell-based, Streptococcus sanguinis ATCC10556. To be noted: Streptococcus sanguinis, BHI medium. Here is the method: as §1, §2
Test [3] concerns S. mutans/S. gordonii/S. sanguinis 3-species biofilms. Nature of the test: 3-species biofilm imaging (EPS, dead/live, FISH) and quantitative PCR. It counts as cell-based. Here is the method:
To form 3-species biofilms, bacterial suspensions were mixed to obtain an inoculum consisting of S. mutans, S. gordonii, and S. sanguinis (1 × 10^5 CFU/ml for each strain, inoculum ratio = 1:1:1) in BHIS broth as described previously. The inoculum (250 μl) was added into the chemotaxis chamber (μ-slide 8well, 80,826; Ibidi) and incubated for 24 h. After the multispecies biofilms were formed, they were treated with different concentrations of II-6s, CHX and PBS for 5 days (5 min, three times per day).
For EPS staining, 2.5 μM Alexa Fluor 647-labeled dextran conjugate (Molecular Probes) was added to the culture medium from the beginning of the biofilm formation, and the bacteria were stained with 2.5 μM SYTO 9 (Molecular Probes, Invitrogen) for 15 min after biofilms formed. The biofilms were imaged with a DMIRE2 confocal laser scanning microscope (Leica, Wetzlar, Germany) equipped with a 60 × oil immersion lens.
For dead/live imaging, multispecies biofilms were stained with the Live/Dead BacLight Bacterial Viability Kit (Molecular Probes, Invitrogen), and the reagents were applied to the biofilms at final concentrations of 2.5 μM SYTO 9 and 2.5 μM propidium iodide for 15 min. Live/Dead staining is a measure of membrane damage since SYTO 9 penetrates intact cytoplasmic membranes, while propidium iodide is only able to penetrate damaged membranes. The dyed biofilms were imaged with a Leica DMIRE2 confocal laser scanning microscope as in EPS staining.
For fluorescent in situ hybridization imaging, biofilms were fixed in 4% paraformaldehyde overnight and investigated by species-specific probes (Table S1) as described previously [[30–32]]. In brief, prehybridization (15 min, 46°C) was performed in 250 μl hybridization buffer with 20% formamide in the absence of any oligonucleotide probes. The incubation time for the hybridization was almost 90 min at 46°C in the dark. After the incubation, biofilms were transferred into washing buffer preheated to 48°C and incubated for 15 min at this temperature. After staining, the biofilms were imaged with a Leica DMIRE2 confocal laser scanning microscope as in EPS staining.
Each biofilm was scanned at five randomly selected positions and the experiments were performed in triplicates on three independent occasions. All three-dimensional reconstructions of the biofilms were processed with Imaris, version 7.2.3 (Bitplane, Zürich, Switzerland), and the quantification of fluorescence levels was performed with ImageJ (with the plugin COMSTAT) (National Institutes of Health, Bethesda, MD).
Total DNA of biofilms was isolated and purified using a TIANamp Bacteria DNA kit (Tiangen, Beijing, China). The bacteria were lysed using enzymatic lysis buffer (20 mM Tris-HCl, pH 8.0, 2 mM sodium EDTA, and 1.2% Triton X-100) containing 25 mg/ml of lysozyme at 37°C for 1.5 h. The purity and concentration of DNA were determined by a NanoDrop 2000 spectrophotometer (Thermo Scientific, Waltham, MA, USA). The extracts were placed at −20°C before use. TaqMan real-time PCR (Life Technologies, Carlsbad, CA, USA) was applied to quantify the absolute number of S. mutans, S. gordonii and S. sanguinis as described by the manufacturer (TaKaRa, Dalian, China). The sequences of primers (Table S2) were in accordance with previous studies. The standard curves of these bacteria were plotted using cycle values of DNA, which stands for corresponding concentrations of bacteria from 1 × 10^8 CFU/ml to 1 × 10^4 CFU/ml (Figure S1). The number of each strain within 3-species biofilms was calculated based on standard curves. The experiment was conducted in triplicates and repeated three times.

The mark [4] stands for this setting: S. gordonii, planktonic, BHI medium.
[5] abbreviates: S. mutans, planktonic, BHI medium.
The mark [6] stands for this setting: 5 days, 5 min three times per day.

The MBC is the lowest tested concentration that kills the bacteria rather than only halting them. A low value points to greater bactericidal potency. One may read the MIC as the least concentration at which growth counts as inhibited. Turning to `[H]/N=C(\N/C(=N/[H])NCCCCCCNC(=N)NC(=N)Nc1ccc(Cl)cc1)Nc1ccc(Cl)cc1` [CHX, Chlorhexidine digluconate, reference compound], the minimum bactericidal concentration (MBC) in the test on S. gordonii (setting [4]) was determined as 7.81 µg/mL; in the test on S. mutans [2] (setting [5]), 7.81 µg/mL; against S. sanguinis, 3.91 µg/mL. Also, the MIC with S. gordonii (S. gordonii, planktonic, BHI medium, read-out: MIC) was determined as 3.91 µg/mL; with S. mutans [2] (S. mutans, planktonic, BHI medium, read-out: MIC), 1.95 µg/mL; in the test on S. sanguinis, 0.49 µg/mL. In the test on S. mutans [1], the “change of MIC / induction of drug resistance after repeated exposure” value is recorded as “increased by four times at the 15th passage”. Also, the “EPS/bacteria ratio of the biofilms” value in test [3] (setting [6]) is listed as “neither II-6s nor CHX treatment altered the EPS/bacteria ratio”.
`CC(C)(Cc1ccc2ccccc2c1)NC[C@H](O)CNc1cc(C(F)(F)F)cc(C(F)(F)F)c1` [II-6s, (S)-1-((3,5-bis(trifluoromethyl)phenyl)amino)-3-((2-methyl-1-(naphthalen-2-yl)propan-2-yl)amino)propan-2-ol]: the MIC in the test with S. gordonii stood at 3.91 µg/mL (≈ 8.07 µM); in the test on S. mutans [1] (Streptococcus mutans, read-out: MIC against S. mutans during passaging), 3.91 µg/mL (≈ 8.07 µM); in the test on S. mutans [2] it was 3.91 µg/mL (≈ 8.07 µM); with S. sanguinis it was 1.95 µg/mL (≈ 4.02 µM). In addition, the MBC amounted to 15.6 µg/mL (≈ 32.3 µM) against S. gordonii (setting [4]), 15.6 µg/mL (≈ 32.3 µM) against S. mutans [2] (setting [5]) and 7.81 µg/mL (≈ 16.1 µM) against S. sanguinis. Besides, the “change of MIC / induction of drug resistance after repeated exposure” value with S. mutans [1] is “did not induce drug resistance”. Also, in test [3] (setting [6]), the “EPS/bacteria ratio of the biofilms” value is “neither II-6s nor CHX treatment altered the EPS/bacteria ratio”. Moreover, the “microbial composition within 3-species biofilms (FISH, quantitative PCR)” value in test [3] (setting [6]) is “effectively reduced the total biomass of streptococci but did not specifically reduce the cariogenic S. mutans”. In addition, the “dead/live bacteria ratio of biofilm” value in test [3] (II-6s 125 μg/ml, vs 0.2% of CHX) is “even higher than that treated with 0.2% of CHX”. Further, in test [3] (II-6s 31.25 to 125 μg/ml, vs non-treated control), the “dead/live bacteria ratio of biofilms” value is recorded as “significantly higher than that of the non-treated control”. Also, the “reduction of bacterial biomass and EPS production” value in test [3] (II-6s 31.25 to 125 μg/ml, 5 days, 5 min three times per day) was “equivalent ability to reduce bacterial biomass and EPS production as compared to 0.2% of CHX”.
